We go through two compounds from paper PMC3011871, “Purification and Biochemical Characterization of a Specific β-Glucosidase from the Digestive Fluid of Larvae of the Palm Weevil, Rhynchophorus palmarum” (Journal of Insect Science, 2009).

Experiment [1] concerns T1, β-glucosidase from the digestive fluid of Rhynchophorus palmarum larvae.
T1 construct: gene cellobiase; native, purified from larval digestive fluid (Abidjan, Côte d'Ivoire); monomer, 58 kDa SDS-PAGE, 60 kDa gel filtration
The experiment in a line: glucose release by glucose oxidase-peroxidase, Lineweaver-Burk. The class given is biochemical. The note with it: 100 mM acetate buffer pH 5.0, 37°C. An excerpt:
glucose release by glucose oxidase-peroxidase, Lineweaver-Burk on β-glucosidase from the digestive fluid of Rhynchophorus palmarum larvae

Experiment [2] has the same test system. The experiment in a line: p-nitrophenol release at […] nm, Lineweaver-Burk. The settings on record: 100 mM acetate buffer pH 5.0, 37°C. The class given is biochemical.

The term Km denotes the substrate concentration at which the rate is half of its maximum. Regarding `OC[C@H]1O[C@@H](O[C@H]2[C@H](O)[C@@H](O)C(O)O[C@@H]2CO)[C@H](O)[C@@H](O)[C@@H]1O` (some centres unmarked) [cellobiose], in experiment [1], the Km came out at 310 µM.

In the case of `O=[N+]([O-])c1ccc(O[C@@H]2O[C@H](CO)[C@@H](O)[C@H](O)[C@H]2O)cc1` [p-nitrophenyl-β-D-glucopyranoside], the Michaelis constant (Km) in experiment [2] worked out at 250 µM.
